ChEMBL document CHEMBL4765305, “Elephantopinolide A-P, germacrane-type sesquiterpene lactones from Elephantopus scaber induce apoptosis, autophagy and G2/M phase arrest in hepatocellular carcinoma cells” (Eur J Med Chem, 2020)

Assays:
[1] = test system: HepG2; test: Anti-hepatoma activity against human HepG2 cells assessed as cell growth inhibition by MTT assay; type: functional, cell-based
[2] = test system: Hep 3B2; test: Anti-hepatoma activity against human Hep3B cells assessed as cell growth inhibition by MTT assay; type: functional, cell-based

Compound	IC50 [1] [µM]	IC50 [2] [µM]
C/C=C(/C)C(=O)O[C@H]1CC2=C[C@@H](C/C(C)=C/[C@H]3OC(=O)C(CO)=C13)OC2=O	> 20	> 20
C=C1C(=O)O[C@H]2[C@H]1[C@@H](OC(=O)/C(C)=C\C)CC1=C[C@H](CC(=C)[C@H]2O)OC1=O	8.35	8.16
C[C@@H]1C(=O)O[C@H]2CC3=C[C@@H](C[C@@](C)(O)/C=C/[C@@H]21)OC3=O	> 20	> 20
C=C(C(=O)OC)[C@H]1/C=C/[C@](C)(O)C[C@@H]2C=C(C[C@@H]1OC(=O)/C(C)=C\C)C(=O)O2	> 20	> 20
C=C(C)C(=O)O[C@H]1CC2=C[C@H](C[C@@]3(C)O[C@H]3[C@H]3OC(=O)C(=C)[C@@H]31)OC2=O	2.55	4.26
C=C(C)C(=O)O[C@H]1CC2=C[C@H](CC(=C)[C@@H](O)[C@H]3OC(=O)C(=C)[C@@H]31)OC2=O	8.59	8.79
C=C1C(=O)O[C@H]2[C@H]1[C@@H](OC(=O)/C(C)=C\C)CC1=C[C@H](C[C@@]3(C)O[C@@H]23)OC1=O	2.97	7.14
C=C1C(=O)O[C@@H]2/C=C(\C)C[C@H]3C=C(C[C@H](OC(=O)C(C)C)[C@@H]12)C(=O)O3	10.6	8.63
